Test results taken from article PMC8799717, “Pharmacological targeting PIKfyve and tubulin as an effective treatment strategy for double-hit lymphoma” (Cell Death Discovery, 2022).

Experiments:
[1] = molecular target: EPHA3 (Homo sapiens, UniProt P29320); assay: biochemical; parameters: KINOMEscan active-site-directed competition binding panel, 468 kinases, percent of DMSO control at 1 uM; details: KINOMEscan binding, percent of DMSO control; read-out: Ctrl%
[2] = molecular target: CDK2 (Homo sapiens, UniProt P24941); assay: biochemical; parameters: KINOMEscan active-site-directed competition binding panel, 468 kinases, percent of DMSO control at 1 uM; details: KINOMEscan binding, percent of DMSO control; read-out: Ctrl%
[3] = molecular target: PIK3CG (Homo sapiens, UniProt P48736); assay: biochemical; parameters: KINOMEscan active-site-directed competition binding panel, 468 kinases, percent of DMSO control at 1 uM; details: KINOMEscan binding, percent of DMSO control; read-out: Ctrl%
[4] = molecular target: T1, p38-delta (Homo sapiens, UniProt O15264); assay: biochemical; parameters: KINOMEscan active-site-directed competition binding panel, 468 kinases, percent of DMSO control at 1 uM; details: KINOMEscan binding, percent of DMSO control; read-out: Ctrl%
T1 construct: gene MAPK13

[5] = molecular target: CDKL2 (Homo sapiens, UniProt Q92772); assay: biochemical; parameters: KINOMEscan active-site-directed competition binding panel, 468 kinases, percent of DMSO control at 1 uM; details: KINOMEscan binding, percent of DMSO control; read-out: Ctrl%
[6] = molecular target: T2, ERK2 (Homo sapiens, UniProt P28482); assay: biochemical; parameters: KINOMEscan active-site-directed competition binding panel, 468 kinases, percent of DMSO control at 1 uM; details: KINOMEscan binding, percent of DMSO control; read-out: Ctrl%
T2 construct: gene MAPK1

[7] = molecular target: T3, ABL1-phosphorylated (Homo sapiens, UniProt P00519); assay: biochemical; parameters: KINOMEscan active-site-directed competition binding panel, 468 kinases, percent of DMSO control at 1 uM; details: KINOMEscan binding, percent of DMSO control; read-out: Ctrl%
T3 construct: phosphorylated

[8] = molecular target: CSK (Homo sapiens, UniProt P41240); assay: biochemical; parameters: KINOMEscan active-site-directed competition binding panel, 468 kinases, percent of DMSO control at 1 uM; details: KINOMEscan binding, percent of DMSO control; read-out: Ctrl%
[9] = molecular target: GRK3 (Homo sapiens, UniProt P35626); assay: biochemical; parameters: KINOMEscan active-site-directed competition binding panel, 468 kinases, percent of DMSO control at 1 uM; details: KINOMEscan binding, percent of DMSO control; read-out: Ctrl%
[10] = molecular target: CSF1R-autoinhibited (Homo sapiens, UniProt P07333); assay: biochemical; parameters: KINOMEscan active-site-directed competition binding panel, 468 kinases, percent of DMSO control at 1 uM; details: KINOMEscan binding, percent of DMSO control; read-out: Ctrl%
[11] = molecular target: MARK2 (Homo sapiens, UniProt Q7KZI7); assay: biochemical; parameters: KINOMEscan active-site-directed competition binding panel, 468 kinases, percent of DMSO control at 1 uM; details: KINOMEscan binding, percent of DMSO control; read-out: Ctrl%
[12] = molecular target: PIK3CA(I800L) (Homo sapiens, UniProt P42336, I800L); assay: biochemical; parameters: KINOMEscan active-site-directed competition binding panel, 468 kinases, percent of DMSO control at 1 uM; details: KINOMEscan binding, percent of DMSO control; read-out: Ctrl%
[13] = molecular target: T4, MLK2 (Homo sapiens, UniProt Q02779); assay: biochemical; parameters: KINOMEscan active-site-directed competition binding panel, 468 kinases, percent of DMSO control at 1 uM; details: KINOMEscan binding, percent of DMSO control; read-out: Ctrl%
T4 construct: gene MAP3K10

[14] = molecular target: CHEK1 (Homo sapiens, UniProt O14757); assay: biochemical; parameters: KINOMEscan active-site-directed competition binding panel, 468 kinases, percent of DMSO control at 1 uM; details: KINOMEscan binding, percent of DMSO control; read-out: Ctrl%
[15] = molecular target: KIT(V559D,V654A) (Homo sapiens, UniProt P10721, V559D/V654A); assay: biochemical; parameters: KINOMEscan active-site-directed competition binding panel, 468 kinases, percent of DMSO control at 1 uM; details: KINOMEscan binding, percent of DMSO control; read-out: Ctrl%
[16] = molecular target: T5, YSK1 (Homo sapiens, UniProt O00506); assay: biochemical; parameters: KINOMEscan active-site-directed competition binding panel, 468 kinases, percent of DMSO control at 1 uM; details: KINOMEscan binding, percent of DMSO control; read-out: Ctrl%
T5 construct: gene STK25

[17] = molecular target: ALK (Homo sapiens, UniProt Q9UM73); assay: biochemical; parameters: KINOMEscan active-site-directed competition binding panel, 468 kinases, percent of DMSO control at 1 uM; details: KINOMEscan binding, percent of DMSO control; read-out: Ctrl%
[18] = molecular target: T6, IKK-alpha (Homo sapiens, UniProt O15111); assay: biochemical; parameters: KINOMEscan active-site-directed competition binding panel, 468 kinases, percent of DMSO control at 1 uM; details: KINOMEscan binding, percent of DMSO control; read-out: Ctrl%
T6 construct: gene CHUK

[19] = molecular target: CIT (Homo sapiens, UniProt O14578); assay: biochemical; parameters: KINOMEscan active-site-directed competition binding panel, 468 kinases, percent of DMSO control at 1 uM; details: KINOMEscan binding, percent of DMSO control; read-out: Ctrl%
[20] = molecular target: FLT3 (Homo sapiens, UniProt P36888); assay: biochemical; parameters: KINOMEscan active-site-directed competition binding panel, 468 kinases, percent of DMSO control at 1 uM; details: KINOMEscan binding, percent of DMSO control; read-out: Ctrl%
[21] = molecular target: T7, SNARK (Homo sapiens, UniProt Q9H093); assay: biochemical; parameters: KINOMEscan active-site-directed competition binding panel, 468 kinases, percent of DMSO control at 1 uM; details: KINOMEscan binding, percent of DMSO control; read-out: Ctrl%
T7 construct: gene NUAK2

[22] = molecular target: T8, DMPK2 (Homo sapiens, UniProt Q6DT37); assay: biochemical; parameters: KINOMEscan active-site-directed competition binding panel, 468 kinases, percent of DMSO control at 1 uM; details: KINOMEscan binding, percent of DMSO control; read-out: Ctrl%
T8 construct: gene CDC42BPG

[23] = molecular target: DDR2 (Homo sapiens, UniProt Q16832); assay: KINOMEscan competition binding, single dose […]; details: read-out: % of control at 1 μM
[24] = molecular target: RAF1 (Homo sapiens, UniProt P04049); assay: KINOMEscan competition binding, single dose […]; details: read-out: % of control at 1 μM
[25] = molecular target: KIT (Homo sapiens, UniProt P10721); assay: KINOMEscan competition binding, single dose […]; details: read-out: % of control at 1 μM
Chain of KIT (P10721 26-976): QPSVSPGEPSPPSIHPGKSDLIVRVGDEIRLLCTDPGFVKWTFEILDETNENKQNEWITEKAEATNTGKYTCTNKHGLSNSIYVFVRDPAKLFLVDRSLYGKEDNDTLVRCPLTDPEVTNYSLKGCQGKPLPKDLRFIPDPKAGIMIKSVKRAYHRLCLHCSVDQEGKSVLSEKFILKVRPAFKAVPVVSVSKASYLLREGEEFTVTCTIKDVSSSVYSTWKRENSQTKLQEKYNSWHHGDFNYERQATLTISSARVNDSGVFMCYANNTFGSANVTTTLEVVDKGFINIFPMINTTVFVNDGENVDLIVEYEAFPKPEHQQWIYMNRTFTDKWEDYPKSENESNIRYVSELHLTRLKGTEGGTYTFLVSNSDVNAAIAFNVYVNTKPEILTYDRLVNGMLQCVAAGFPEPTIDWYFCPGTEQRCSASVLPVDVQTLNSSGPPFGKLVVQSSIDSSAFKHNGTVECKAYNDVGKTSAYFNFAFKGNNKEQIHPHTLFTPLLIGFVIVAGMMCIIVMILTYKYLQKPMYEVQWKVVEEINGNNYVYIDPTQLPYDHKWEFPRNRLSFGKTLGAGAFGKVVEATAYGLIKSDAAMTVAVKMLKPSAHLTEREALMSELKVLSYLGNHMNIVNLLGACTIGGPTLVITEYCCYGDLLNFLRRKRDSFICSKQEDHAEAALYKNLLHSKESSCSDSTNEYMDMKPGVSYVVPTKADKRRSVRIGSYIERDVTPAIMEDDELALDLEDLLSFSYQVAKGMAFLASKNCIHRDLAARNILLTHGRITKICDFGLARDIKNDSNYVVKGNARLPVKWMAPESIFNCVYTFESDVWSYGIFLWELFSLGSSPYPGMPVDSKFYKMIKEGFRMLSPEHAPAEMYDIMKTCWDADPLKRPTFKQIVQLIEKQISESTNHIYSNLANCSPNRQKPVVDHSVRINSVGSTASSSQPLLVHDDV

T3 sequence (P00519 whole entry): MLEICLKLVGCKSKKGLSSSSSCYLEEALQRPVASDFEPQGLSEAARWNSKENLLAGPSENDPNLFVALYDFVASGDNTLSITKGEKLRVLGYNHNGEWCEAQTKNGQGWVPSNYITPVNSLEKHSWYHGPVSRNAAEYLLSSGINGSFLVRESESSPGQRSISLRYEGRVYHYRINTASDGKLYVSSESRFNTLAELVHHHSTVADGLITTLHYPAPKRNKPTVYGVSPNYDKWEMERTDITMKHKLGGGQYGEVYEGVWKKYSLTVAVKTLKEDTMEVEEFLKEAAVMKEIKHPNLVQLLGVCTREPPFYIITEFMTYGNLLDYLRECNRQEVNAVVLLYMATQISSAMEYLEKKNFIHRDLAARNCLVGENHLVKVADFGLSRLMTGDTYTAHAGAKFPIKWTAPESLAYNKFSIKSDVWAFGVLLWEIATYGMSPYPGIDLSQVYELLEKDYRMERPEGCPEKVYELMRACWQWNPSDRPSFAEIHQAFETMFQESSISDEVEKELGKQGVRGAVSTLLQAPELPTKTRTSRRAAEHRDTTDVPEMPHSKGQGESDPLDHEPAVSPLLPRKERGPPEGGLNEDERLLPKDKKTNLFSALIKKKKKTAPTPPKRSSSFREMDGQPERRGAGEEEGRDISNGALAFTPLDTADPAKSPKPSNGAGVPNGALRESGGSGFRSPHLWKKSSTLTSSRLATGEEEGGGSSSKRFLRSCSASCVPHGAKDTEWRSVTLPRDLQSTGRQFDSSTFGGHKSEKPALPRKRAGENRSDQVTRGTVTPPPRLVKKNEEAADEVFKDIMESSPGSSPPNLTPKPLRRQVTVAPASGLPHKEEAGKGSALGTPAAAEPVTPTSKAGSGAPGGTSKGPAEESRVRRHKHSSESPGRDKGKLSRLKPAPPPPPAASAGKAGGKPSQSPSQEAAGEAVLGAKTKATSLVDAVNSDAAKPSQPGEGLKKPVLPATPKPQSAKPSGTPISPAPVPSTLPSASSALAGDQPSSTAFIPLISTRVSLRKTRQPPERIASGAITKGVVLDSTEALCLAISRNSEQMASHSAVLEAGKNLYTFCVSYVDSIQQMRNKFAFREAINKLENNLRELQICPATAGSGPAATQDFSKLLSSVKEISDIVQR
Chain of PIK3CG (P48736 whole entry): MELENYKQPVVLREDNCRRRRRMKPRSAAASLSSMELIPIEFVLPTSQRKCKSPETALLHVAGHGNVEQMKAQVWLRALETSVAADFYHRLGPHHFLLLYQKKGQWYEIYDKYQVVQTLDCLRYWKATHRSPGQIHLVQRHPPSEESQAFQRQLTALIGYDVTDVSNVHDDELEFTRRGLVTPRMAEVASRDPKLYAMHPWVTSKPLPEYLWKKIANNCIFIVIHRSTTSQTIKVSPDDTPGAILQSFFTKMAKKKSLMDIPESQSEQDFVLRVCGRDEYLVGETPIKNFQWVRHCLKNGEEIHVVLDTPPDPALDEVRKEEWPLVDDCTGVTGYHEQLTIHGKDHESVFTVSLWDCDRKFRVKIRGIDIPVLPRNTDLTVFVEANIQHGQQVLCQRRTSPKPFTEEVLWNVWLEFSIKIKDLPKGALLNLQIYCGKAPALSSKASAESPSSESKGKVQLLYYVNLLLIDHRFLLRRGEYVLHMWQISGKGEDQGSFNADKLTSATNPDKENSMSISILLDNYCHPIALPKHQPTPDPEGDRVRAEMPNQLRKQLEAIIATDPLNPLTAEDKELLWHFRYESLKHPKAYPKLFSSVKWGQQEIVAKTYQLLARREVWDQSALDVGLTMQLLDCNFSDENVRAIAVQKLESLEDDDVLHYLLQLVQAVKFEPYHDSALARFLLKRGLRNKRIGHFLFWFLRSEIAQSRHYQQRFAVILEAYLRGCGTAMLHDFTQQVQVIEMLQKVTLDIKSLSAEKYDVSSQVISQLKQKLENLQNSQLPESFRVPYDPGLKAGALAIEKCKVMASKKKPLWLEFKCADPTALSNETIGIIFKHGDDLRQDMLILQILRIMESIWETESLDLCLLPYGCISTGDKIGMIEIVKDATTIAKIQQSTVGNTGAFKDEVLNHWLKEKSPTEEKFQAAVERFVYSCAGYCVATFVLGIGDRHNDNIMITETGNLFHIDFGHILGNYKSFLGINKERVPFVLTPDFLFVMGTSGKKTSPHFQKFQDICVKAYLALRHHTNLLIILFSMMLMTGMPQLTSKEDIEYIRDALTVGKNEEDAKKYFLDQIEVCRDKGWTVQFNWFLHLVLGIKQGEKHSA
Chain of KIT(V559D,V654A) (P10721 whole entry V559D/V654A): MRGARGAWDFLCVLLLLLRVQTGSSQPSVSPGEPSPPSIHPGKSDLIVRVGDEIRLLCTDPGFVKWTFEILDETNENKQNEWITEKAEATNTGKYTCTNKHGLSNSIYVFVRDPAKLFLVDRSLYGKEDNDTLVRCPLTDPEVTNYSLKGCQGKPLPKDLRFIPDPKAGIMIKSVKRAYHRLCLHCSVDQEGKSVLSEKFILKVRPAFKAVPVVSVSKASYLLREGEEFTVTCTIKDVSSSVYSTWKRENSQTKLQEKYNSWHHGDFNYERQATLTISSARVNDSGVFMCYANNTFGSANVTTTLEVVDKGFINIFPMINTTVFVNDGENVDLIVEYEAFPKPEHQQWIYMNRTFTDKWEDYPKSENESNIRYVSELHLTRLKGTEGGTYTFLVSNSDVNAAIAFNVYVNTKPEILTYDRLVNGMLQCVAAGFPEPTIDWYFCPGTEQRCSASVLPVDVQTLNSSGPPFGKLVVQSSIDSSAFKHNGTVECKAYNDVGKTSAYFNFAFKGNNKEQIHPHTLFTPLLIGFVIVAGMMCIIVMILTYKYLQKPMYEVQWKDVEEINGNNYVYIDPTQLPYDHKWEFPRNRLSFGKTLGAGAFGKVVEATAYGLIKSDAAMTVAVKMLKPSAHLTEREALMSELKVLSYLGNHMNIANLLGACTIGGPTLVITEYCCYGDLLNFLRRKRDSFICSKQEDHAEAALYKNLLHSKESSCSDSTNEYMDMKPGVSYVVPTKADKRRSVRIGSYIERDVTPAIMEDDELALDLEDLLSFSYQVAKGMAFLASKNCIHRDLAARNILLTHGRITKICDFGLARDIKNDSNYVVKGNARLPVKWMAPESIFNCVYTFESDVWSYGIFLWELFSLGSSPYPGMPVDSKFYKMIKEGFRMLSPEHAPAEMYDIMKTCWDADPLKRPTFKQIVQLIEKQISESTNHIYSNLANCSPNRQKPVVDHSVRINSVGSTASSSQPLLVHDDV
T6 sequence (O15111 whole entry): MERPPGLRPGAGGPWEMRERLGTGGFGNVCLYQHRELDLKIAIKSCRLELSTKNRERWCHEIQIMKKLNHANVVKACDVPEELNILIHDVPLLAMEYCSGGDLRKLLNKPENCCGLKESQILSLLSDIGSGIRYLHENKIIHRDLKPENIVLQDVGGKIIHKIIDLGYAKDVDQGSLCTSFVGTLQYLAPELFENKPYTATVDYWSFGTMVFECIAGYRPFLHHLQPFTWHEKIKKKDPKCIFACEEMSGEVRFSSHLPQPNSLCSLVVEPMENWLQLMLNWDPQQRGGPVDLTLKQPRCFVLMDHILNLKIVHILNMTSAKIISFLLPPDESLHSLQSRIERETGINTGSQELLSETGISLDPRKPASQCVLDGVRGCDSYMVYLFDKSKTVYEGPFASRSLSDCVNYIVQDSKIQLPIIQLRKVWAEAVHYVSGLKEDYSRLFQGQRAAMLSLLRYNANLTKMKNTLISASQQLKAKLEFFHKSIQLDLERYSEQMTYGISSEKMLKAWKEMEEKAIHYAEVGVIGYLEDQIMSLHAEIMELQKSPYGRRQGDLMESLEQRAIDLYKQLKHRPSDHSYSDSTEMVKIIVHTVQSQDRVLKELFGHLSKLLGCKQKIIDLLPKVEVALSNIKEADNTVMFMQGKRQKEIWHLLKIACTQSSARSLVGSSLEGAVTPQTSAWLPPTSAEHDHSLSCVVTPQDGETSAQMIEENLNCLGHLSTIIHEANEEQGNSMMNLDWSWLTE

Cc1ccc(NC(=O)c2cccc(C(F)(F)F)c2)cc1Nc1cc(-c2cccnc2)nc2[nH]ccc12 [HZX-02-059]
remaining binding at 1 µM [1]: 27%
remaining binding at 1 µM [2]: 96%
remaining binding at 1 µM [3]: 96%
remaining binding at 1 µM [4]: 87%
remaining binding at 1 µM [5]: 99%
remaining binding at 1 µM [6]: 100%
remaining binding at 1 µM [7]: 55%
remaining binding at 1 µM [8]: 91%
remaining binding at 1 µM [9]: 98%
remaining binding at 1 µM [10]: 93%
remaining binding at 1 µM [11]: 78%
remaining binding at 1 µM [12]: 81%
remaining binding at 1 µM [13]: 97%
remaining binding at 1 µM [14]: 88%
remaining binding at 1 µM [15]: 61%
remaining binding at 1 µM [16]: 94%
remaining binding at 1 µM [17]: 100%
remaining binding at 1 µM [18]: 100%
remaining binding at 1 µM [19]: 64%
remaining binding at 1 µM [20]: 91%
remaining binding at 1 µM [21]: 99%
remaining binding at 1 µM [22]: 99%
remaining binding at 1 µM [23]: 0%
remaining binding at 1 µM [24]: 0.95%
remaining binding at 1 µM [25]: 1.2%
